The values that follow come from article PMC4660440 (Scientific Reports, 2015).

SMILES strings stand for the structures. Read-outs that look alike come from different tables or passages of the source.

What all share (format): cell-based
Data set [1] relates to HeLa. The data set can be described thus: MTT cytotoxicity assay, HeLa. The following applies: drug exposure 48 h, mean ± SD (n = 3), read-out: Cytotoxic activity (IC50) HeLa. The protocol: (§1) HeLa, BGC823, A-549, MCF-7 and HT-7702 cell lines were obtained from the ATCC. […] Tumor cells (3500–13,000) were seeded into 96-well microtest plates in 100 μL of culture medium per well, incubated for 48 h in the presence or absence of test compounds (8 different concentrations ranging from 100 to 0.01 μg/mL). For quantitative estimation of cytotoxicity, the (MTT) method was used, essentially performed as described previously. Briefly, cells were washed twice with PBS, fixed for 15 min in 1% glutaraldehyde solution, rinsed twice in PBS, and stained in 0.5% MTT solution for 4 h at 37 °C. […] The initial seeding densities varied among the cell lines to ensure a final absorbance reading in control (untreated) cultures within the range of 0.6–0.8 A492 units. Drug exposure was carried out for 2 days, and the IC50 value, i.e., the drug concentration that decreased the absorbance by 50%, was extrapolated from dose-response data. Each test was performed in triplicate, and the absorbance readings between the triplicates varied by no more than 10%.

The test system of data set [2] is BGC-823. The data set can be described thus: MTT cytotoxicity assay, BGC-823. As to conditions: Homo sapiens, BGC-823, drug exposure 48 h, mean ± SD (n = 3), read-out: Cytotoxic activity (IC50) BGC-823. As for the experimental part: as §1
In general terms: Tetrazolium assays rely on reduction of a dye to a coloured formazan, in cell work by metabolically active cells.

Data set [3] concerns A549. Description: MTT cytotoxicity assay, A549. As to conditions: Homo sapiens, A549, drug exposure 48 h, mean ± SD (n = 3), read-out: Cytotoxic activity (IC50) A549. The protocol:
as §1

The subject of data set [4] is MCF-7. Description: MTT cytotoxicity assay, MCF-7. As to conditions: Homo sapiens, MCF7, drug exposure 48 h, mean ± SD (n = 3), read-out: Cytotoxic activity (IC50) MCF-7. The protocol:
as §1

Data set [5] can be described thus: MTT cytotoxicity assay, normal hepatic cell line HL-7702. As to conditions: HL-7702 normal hepatic cells, human normal hepatic immortal cell line, drug exposure 48 h, mean ± SD (n = 3), read-out: Cytotoxic activity (IC50) HL-7702. The protocol:
as §1

By IC50 is commonly meant the point on the concentration scale where inhibition reaches its midpoint.

As to `COc1cc([C@@H]2c3cc4c(cc3[C@@H](Nc3ccc(F)cc3)[C@H]3COC(=O)[C@H]23)OCO4)cc(OC)c1O` [Compound 10′], the IC50 in data set [1] (Homo sapiens, HeLa, 48 h) was 16.32 ± 0.09 µM; in data set [2], 28.61 ± 0.06 µM; in data set [3] it was 17.7 ± 0.47 µM; in data set [4] it was 9.84 ± 0.73 µM. For the same molecule, the IC50 at 48 h in data set [5] came to 29.6 ± 2.33 µM.
The matching figures for `COc1ccccc1N[C@@H]1c2cc3c(cc2[C@@H](c2cc(OC)c(O)c(OC)c2)[C@H]2C(=O)OC[C@@H]21)OCO3` [Compound 11′]: 13.5 ± 1.38 µM, 9.68 ± 0.17 µM, 8.68 ± 0.29 µM, 9.42 ± 0.24 µM and 63.57 ± 0.19 µM.
As for `COc1cc([C@@H]2c3cc4c(cc3[C@@H](O[C@@H]3O[C@@H]5CO[C@@H](C)O[C@H]5[C@H](O)[C@H]3O)[C@H]3COC(=O)[C@H]23)OCO4)cc(OC)c1O` [Etoposide, reference compound], the IC50 in data set [1] (Homo sapiens, HeLa, 48 h) stood at 59.4 ± 2.45 µM; in data set [1] it was 59.4 ± 2.45 µM; in data set [2], 25.5 ± 1.42 µM; in data set [3], 20.1 ± 1.95 µM; in data set [4] it was 25.3 ± 1.93 µM. The IC50 at 48 h in data set [5] stood at 24.6 ± 3.82 µM.
In the case of `COc1cc([C@@H]2c3cc4c(cc3[C@@H](Nc3cccc(Br)c3)[C@H]3COC(=O)[C@H]23)OCO4)cc(OC)c1OC` [Compound 5], the IC50 in data set [1] (Homo sapiens, HeLa, 48 h) turned out to be 9.01 ± 0.11 µM; in data set [2], 11.2 ± 3.61 µM; in data set [3], 13.4 ± 2.54 µM; in data set [4], 8.35 ± 0.42 µM. Moreover, the IC50 at 48 h in data set [5] stood at 13.58 ± 0.11 µM.
The matching figures for `COc1cccc(N[C@@H]2c3cc4c(cc3[C@@H](c3cc(OC)c(OC)c(OC)c3)[C@H]3C(=O)OC[C@@H]32)OCO4)c1` [Compound 13]: 11.6 ± 0.83 µM, 12.7 ± 1.06 µM, 12.4 ± 0.38 µM, 13.8 ± 3.98 µM and 38.8 ± 2.37 µM.
The matching figures for `COc1cc([C@@H]2c3cc4c(cc3[C@@H](Nc3ccccc3)[C@H]3COC(=O)[C@H]23)OCO4)cc(OC)c1O` [Compound 1′]: 44.34 ± 0.34 µM, 68.2 ± 4.13 µM, 42.5 ± 5.11 µM, 26.8 ± 0.67 µM and 53.4 ± 4.34 µM.
The matching figures for `COc1cc([C@@H]2c3cc4c(cc3[C@@H](Nc3ccc(Cl)cc3)[C@H]3COC(=O)[C@H]23)OCO4)cc(OC)c1O` [Compound 9′]: 16.7 ± 1.31 µM, 14.3 ± 1.14 µM, 29.8 ± 0.75 µM, 37.68 ± 0.16 µM and 15.8 ± 1.17 µM.
In the case of `COc1ccc(F)cc1N[C@@H]1c2cc3c(cc2[C@@H](c2cc(OC)c(O)c(OC)c2)[C@H]2C(=O)OC[C@@H]21)OCO3` [Compound 16′], the IC50 in data set [1] (Homo sapiens, HeLa, 48 h) stood at 1.72 ± 0.3 µM; in data set [2], 1.32 ± 0.16 µM; in data set [3] it was 3.17 ± 0.49 µM; in data set [4] it was 1.53 ± 0.07 µM. Moreover, the IC50 at 48 h in data set [5] was 24.3 ± 0.69 µM.
The matching figures for `COc1cc([C@@H]2c3cc4c(cc3[C@@H](Nc3ccccc3Br)[C@H]3COC(=O)[C@H]23)OCO4)cc(OC)c1OC` [Compound 2]: 26.6 ± 2.03 µM, 17.9 ± 0.98 µM, 35.1 ± 2.37 µM, 29.1 ± 1.78 µM and 65.9 ± 2.37 µM.
The matching figures for `COc1ccc(Br)cc1N[C@@H]1c2cc3c(cc2[C@@H](c2cc(OC)c(OC)c(OC)c2)[C@H]2C(=O)OC[C@@H]21)OCO3` [Compound 14]: 7.07 ± 0.63 µM, 6.26 ± 0.36 µM, 6.85 ± 0.75 µM, 4.97 ± 0.03 µM and 87.6 ± 4.13 µM.
The corresponding values for `COc1cc([C@@H]2c3cc4c(cc3[C@@H](Nc3ccccc3F)[C@H]3COC(=O)[C@H]23)OCO4)cc(OC)c1O` [Compound 4′] are 20.7 ± 0.75 µM, 17.8 ± 0.34 µM, 15.6 ± 1.75 µM, 15.3 ± 0.42 µM and 31.5 ± 2.81 µM.
As for `COc1cc([C@@H]2c3cc4c(cc3[C@@H](Nc3ccccc3F)[C@H]3COC(=O)[C@H]23)OCO4)cc(OC)c1OC` [Compound 4], the IC50 in data set [1] (Homo sapiens, HeLa, 48 h) was 22.1 ± 0.81 µM; in data set [2], 22.7 ± 0.97 µM; in data set [3] it was 16.8 ± 1.22 µM; in data set [4], 16.1 ± 0.17 µM. In data set [5], the IC50 at 48 h was 16 ± 0.66 µM.
The corresponding values for `COc1cc([C@@H]2c3cc4c(cc3[C@@H](Nc3cccc(F)c3)[C@H]3COC(=O)[C@H]23)OCO4)cc(OC)c1OC` [Compound 7] are 3.12 ± 0.18 µM, 5.21 ± 1.32 µM, 6.8 ± 0.31 µM, 4.05 ± 0.26 µM and 29.9 ± 0.74 µM.
`COc1cc([C@@H]2c3cc4c(cc3[C@@H](Nc3ccc(F)cc3)[C@H]3COC(=O)[C@H]23)OCO4)cc(OC)c1OC` [Compound 10]: the IC50 in data set [1] (Homo sapiens, HeLa, 48 h) stood at 17.51 ± 0.04 µM; in data set [2], 17 ± 0.18 µM; in data set [3], 12.1 ± 0.63 µM; in data set [4], 7.06 ± 0.37 µM. Further, in data set [5], the IC50 at 48 h worked out at 27.4 ± 1.98 µM.
Consider `COc1ccccc1N[C@@H]1c2cc3c(cc2[C@@H](c2cc(OC)c(OC)c(OC)c2)[C@H]2C(=O)OC[C@@H]21)OCO3` [Compound 11], for which the 50% inhibitory concentration (IC50) in data set [1] (Homo sapiens, HeLa, 48 h) is 13.4 ± 1.31 µM; in data set [2], 14.2 ± 0.98 µM; in data set [3], 14.1 ± 0.37 µM; in data set [4] it was 10.2 ± 0.61 µM. Further, the IC50 at 48 h in data set [5] came to 37.5 ± 1.75 µM.
For the molecule `COc1cc([C@@H]2c3cc4c(cc3[C@@H](Nc3ccccc3Cl)[C@H]3COC(=O)[C@H]23)OCO4)cc(OC)c1O` [Compound 3′], the IC50 in data set [1] (Homo sapiens, HeLa, 48 h) was found to be 23.4 ± 1.4 µM; in data set [2], 23.1 ± 1.87 µM; in data set [3], 20.5 ± 0.42 µM; in data set [4], 37.5 ± 1.03 µM. In data set [5], the IC50 at 48 h is 2.42 ± 0.71 µM.
The corresponding values for `COc1cc([C@@H]2c3cc4c(cc3[C@@H](Nc3cccc(Cl)c3)[C@H]3COC(=O)[C@H]23)OCO4)cc(OC)c1O` [Compound 6′] are 5.13 ± 0.05 µM, 6.59 ± 0.21 µM, 5.03 ± 1.07 µM, 4.75 ± 0.37 µM and 32.5 ± 0.86 µM.
The matching figures for `COc1cccc(N[C@@H]2c3cc4c(cc3[C@@H](c3cc(OC)c(O)c(OC)c3)[C@H]3C(=O)OC[C@@H]32)OCO4)c1` [Compound 13′]: 12.3 ± 0.74 µM, 13.8 ± 1.42 µM, 7.27 ± 2.38 µM, 11 ± 1.26 µM and 39.8 ± 2.73 µM.
The corresponding values for `COc1ccc(Cl)cc1N[C@@H]1c2cc3c(cc2[C@@H](c2cc(OC)c(OC)c(OC)c2)[C@H]2C(=O)OC[C@@H]21)OCO3` [Compound 15] are 2.64 ± 0.04 µM, 3.86 ± 0.29 µM, 1.71 ± 0.26 µM, 2.24 ± 0.14 µM and 19.3 ± 1.34 µM.
For the molecule `COc1cc([C@@H]2c3cc4c(cc3[C@@H](Nc3ccc(Cl)cc3)[C@H]3COC(=O)[C@H]23)OCO4)cc(OC)c1OC` [Compound 9], the IC50 was found to be 21.32 ± 0.11 µM in data set [1] (Homo sapiens, HeLa, 48 h); 23.1 ± 1.74 µM in data set [2]; 22.8 ± 1.08 µM in data set [3]; 19.3 ± 1.43 µM in data set [4]. In addition, the IC50 at 48 h in data set [5] is 41.6 ± 3.11 µM.
For `COc1cc([C@@H]2c3cc4c(cc3[C@@H](Nc3ccccc3)[C@H]3COC(=O)[C@H]23)OCO4)cc(OC)c1OC` [Compound 1], the IC50 in data set [1] (Homo sapiens, HeLa, 48 h) was found to be 35.1 ± 1.03 µM; in data set [2], 86.5 ± 4.21 µM; in data set [3], 43.2 ± 3.32 µM. In data set [5], the IC50 at 48 h stood at 41.8 ± 2.47 µM.
